Measured values published in US10766869B2, “Triazoles for the treatment of demyelinating dieases” (Vertex Pharmaceuticals Incorporated, priority 2015, dated 2020).

Test system: primary rat mixed cortical cells
Assay: In vitro myelination assay (MBP positive myelin strands, fold myelin pixels above background)
Type: cell-based
Conditions: Rattus norvegicus, relative to baseline of no added compound, read-out: Fold myelin pixels above background; for fold induction at 1 µM: 1.0 μM compound; for fold induction at 10 µM: 10.0 μM compound
In short: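 P1 rat cortical cells (neurons, OPCs, oligodendrocytes, astrocytes, microglia) were cultured 14 days at 37 °C with compound, with half-medium changes containing 1× compound on days 6 and 10. Fixed cells were immunostained for MBP and imaged at 10×. Total MBP myelin pixels per well were expressed as fold above no-compound baseline at 1.0 μM and 10.0 μM.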

Structure (SMILES) | fold induction at 1 µM | fold induction at 10 µM
Fc1cc(Nc2ncn(-c3ccc(F)cc3F)n2)cc(N2CCCC2)c1 [Compound 497, 1-(2,4-difluorophenyl)-N-(3-fluoro-5-pyrrolidin-1-yl-phenyl)-1,2,4-triazol-3-amine] | ≤ 1 | ≤ 1
Fc1ccc(-n2cnc(Nc3cc(C4CC4)nc(N4CC[C@@H](F)C4)c3)n2)cc1F [Compound 498, 2-cyclopropyl-N-[1-(3,4-difluorophenyl)-1,2,4-triazol-3-yl]-6-[(3R)-3-fluoropyrrolidin-1-yl]pyridin-4-amine] | 100 to 1000 | 100 to 1000
Cc1cc(Nc2ncn(-c3cccc(C#N)c3)n2)cc(N2CCN(C)CC2)c1 [Compound 499, 3-[3-[3-methyl-5-(4-methylpiperazin-1-yl)anilino]-1,2,4-triazol-1-yl]benzonitrile] | 100 to 1000 | 10 to 100
CC(=O)N(C)C1CCN(c2cc(C)cc(Nc3ncn(-c4cc(F)cc(F)c4)n3)c2)C1 (stereo not shown) [Compound 500, N-[1-[3-[[1-(3,5-difluorophenyl)-1,2,4-triazol-3-yl]amino]-5-methyl-phenyl]pyrrolidin-3-yl]-N-methyl-acetamide] | 100 to 1000 | 1 to 10
Cc1cc(Nc2ncn(-c3ccc(F)c(F)c3)n2)nc(N2CC(N3CCOCC3)C2)c1 [Compound 501, N-[1-(3,4-difluorophenyl)-1,2,4-triazol-3-yl]-4-methyl-6-(3-morpholinoazetidin-1-yl)pyridin-2-amine] | 1 to 10 | ≤ 1
Cc1cc(Nc2ncn(-c3ccccc3)n2)nc(N2CC(N3CCOCC3)C2)c1 [Compound 502, 4-methyl-6-(3-morpholinoazetidin-1-yl)-N-(1-phenyl-1,2,4-triazol-3-yl)pyridin-2-amine] | 1 to 10 | ≤ 1
Cc1cc(Nc2ncn(-c3ccccn3)n2)nc(N2CC(N3CCOCC3)C2)c1 [Compound 503, 4-methyl-6-(3-morpholinoazetidin-1-yl)-N-[1-(2-pyridyl)-1,2,4-triazol-3-yl]pyridin-2-amine] | 1 to 10 | ≤ 1
Cc1cc(Nc2ncn(-c3ccnc(F)c3)n2)nc(N2CC(N3CCOCC3)C2)c1 [Compound 504, N-[1-(2-fluoro-4-pyridyl)-1,2,4-triazol-3-yl]-4-methyl-6-(3-morpholinoazetidin-1-yl)pyridin-2-amine] | 10 to 100 | 10 to 100
CC(=O)OCC(C)(COC(C)=O)N1CCN(c2cc(C)cc(Nc3ncn(-c4cc(F)cc(F)c4)n3)c2)CC1 [Compound 505, [3-acetoxy-2-[4-[3-[[1-(3,5-difluorophenyl)-1,2,4-triazol-3-yl]amino]-5-methyl-phenyl]piperazin-1-yl]-2-methyl-propyl] acetate] | 10 to 100 | ≤ 1
Cc1cc(Nc2ncn(-c3cc(F)cc(F)c3)n2)cc(N2CC(C3COC3)C2)c1 [Compound 506, 1-(3,5-difluorophenyl)-N-[3-methyl-5-[3-(oxetan-3-yl)azetidin-1-yl]phenyl]-1,2,4-triazol-3-amine] | 100 to 1000 | 1 to 10
FC(F)(F)c1cc(Nc2ncn(-c3cnccn3)n2)cc(N2CCC(C3COC3)CC2)c1 [Compound 507, N-[3-[4-(oxetan-3-yl)-1-piperidyl]-5-(trifluoromethyl)phenyl]-1-pyrazin-2-yl-1,2,4-triazol-3-amine] | 10 to 100 | 100 to 1000
Cc1cc(Nc2ncn(-c3cc(F)cc(F)c3)n2)cc(N2CC3(CCO3)C2)c1 [Compound 508, 1-(3,5-difluorophenyl)-N-[3-methyl-5-(3-oxa-6-azaspiro[3.3]heptan-6-yl)phenyl]-1,2,4-triazol-3-amine] | 100 to 1000 | 10 to 100
Cc1cc(Nc2ncn(-c3cc(F)cc(F)c3)n2)cc(N2CCN(C(C)(C)C(=O)O)CC2)c1 [Compound 509, 2-[4-[3-[[1-(3,5-difluorophenyl)-1,2,4-triazol-3-yl]amino]-5-methyl-phenyl]piperazin-1-yl]-2-methyl-propanoic acid] | 100 to 1000 | 100 to 1000
Cc1cc(Nc2ncn(-c3cc(F)cc(F)c3)n2)cc(N2CC(N3CCCC3)C2)c1 [Compound 510, 1-(3,5-difluorophenyl)-N-[3-methyl-5-(3-pyrrolidin-1-ylazetidin-1-yl)phenyl]-1,2,4-triazol-3-amine] | 1 to 10 | 10 to 100
CC(C)c1cc(Nc2ncn(-c3ccncn3)n2)cc(N2CCN(C3COC3)CC2)c1 [Compound 511, N-[3-isopropyl-5-[4-(oxetan-3-yl)piperazin-1-yl]phenyl]-1-pyrimidin-4-yl-1,2,4-triazol-3-amine] | 100 to 1000 | 100 to 1000
FC(F)(F)c1cc(Nc2ncn(-c3cnccn3)n2)cc(N2CC3CC(C2)O3)c1 [Compound 513, N-[3-(6-oxa-3-azabicyclo[3.1.1]heptan-3-yl)-5-(trifluoromethyl)phenyl]-1-pyrazin-2-yl-1,2,4-triazol-3-amine] | 100 to 1000 | 100 to 1000
FC(F)(F)c1cc(Nc2ncn(-c3cnccn3)n2)cc(N2CCN(C3COC3)CC2)c1 [Compound 514, N-[3-[4-(oxetan-3-yl)piperazin-1-yl]-5-(trifluoromethyl)phenyl]-1-pyrazin-2-yl-1,2,4-triazol-3-amine] | 10 to 100 | 100 to 1000
Cc1cc(Nc2ncn(-c3cc(F)cc(F)c3)n2)cc(C2(F)CCN(C3COC3)CC2)c1 [Compound 515, 1-(3,5-difluorophenyl)-N-[3-[4-fluoro-1-(oxetan-3-yl)-4-piperidyl]-5-methyl-phenyl]-1,2,4-triazol-3-amine] | ≤ 1 | 1 to 10
Cc1cc(Nc2ncn(-c3cc(F)cc(F)c3)n2)cc(C2(O)CCN(C3COC3)CC2)c1 [Compound 516, 4-[3-[[1-(3,5-difluorophenyl)-1,2,4-triazol-3-yl]amino]-5-methyl-phenyl]-1-(oxetan-3-yl)piperidin-4-ol] | 10 to 100 | 10 to 100
Cc1cc(Nc2ncn(-c3cc(F)cc(F)c3)n2)cc(N2CCOC2=O)c1 [Compound 517, 3-[3-[[1-(3,5-difluorophenyl)-1,2,4-triazol-3-yl]amino]-5-methyl-phenyl]oxazolidin-2-one] | 10 to 100 | 10 to 100
Cc1cc(Nc2ncn(-c3cc(F)cc(F)c3)n2)cc(N2CC(O)(C(C)C)C2)c1 [Compound 518, 1-[3-[[1-(3,5-difluorophenyl)-1,2,4-triazol-3-yl]amino]-5-methyl-phenyl]-3-isopropyl-azetidin-3-ol] | 10 to 100 | 10 to 100
Cc1cc(Nc2ncn(-c3cc(F)cc(F)c3)n2)cc(N2CC(C(C)(C)O)C2)c1 [Compound 519, 2-[1-[3-[[1-(3,5-difluorophenyl)-1,2,4-triazol-3-yl]amino]-5-methyl-phenyl]azetidin-3-yl]propan-2-ol] | 100 to 1000 | ≤ 1
COC1CC(Nc2cc(C)cc(Nc3ncn(-c4cc(F)cc(F)c4)n3)c2)C1 (stereo not shown) [Compound 520, N3-[1-(3,5-difluorophenyl)-1,2,4-triazol-3-yl]-N1-(3-methoxycyclobutyl)-5-methyl-benzene-1,3-diamine] | 100 to 1000 | ≤ 1
